According to US20260174677A1, “METHODS OF TREATING INSULIN RESISTANCE AND ASSOCIATED DISORDERS” (The University of Melboune, priority 2022, published 2026):
“Also recorded” adds a separate entry of the source.

Tests used:
Type in all cases: in vivo, mouse
[1] = Intranasal PZ6005 in diet-induced obese mice: food intake and energy expenditure; conditions: I.N. 1 or 5 mg/animal/day, Day 8-Day 11 of treatment, diet-induced obesity
Protocol: (§1) Mice were acclimated for 24 h and then monitored for 48 h in an environmentally controlled Promethion Metabolic Screening System (Sable Systems International, NV) fitted with indirect open circuit calorimetry, food consumption and activity monitors to measure activity, caloric intake and energy expenditure. Respiratory quotients were calculated as the ratio of CO2 production over O2 consumption respiratory exchange ratio and energy expenditure was calculated using the Weir equation (Kcal h-1=60×(0.003941×VO2+0.001106×VCO2). To account for difference in body mass/composition energy expenditure was analysed and adjusted using ANCOVA using scripts available at the National Mouse Metabolic Phenotyping Centers (MMPC, Nashville, TN, USA) Energy Expenditure Analysis Page (https://www.mmpc.org/shared/regression.aspx).
Conscious mice were restrained by scruffing and inverted parallel to the floor with the chin at ˜180-degree angle with the neck. Using a 10 μL tip, a pipettor was loaded with 5 μl of vehicle (ddH2O) or fluorosamine (1 mg/animal in 20 μl or 5 mg/animal in 20 μl). The tip of the filled pipettor was placed near the left nostril at a 45-degree angle, and the drug was ejected to form a small 5 μl droplet at tip for the mouse to inhale. […]

[2] = tested on: insulin-induced p-AKT in the ARC; experiment: Intranasal PZ6005 in obese mice: insulin-induced p-AKT immunohistochemistry in the ARC; conditions: both doses I.N. (1 or 5 mg/animal/day), 14 days, after I.P. insulin
Protocol: Conscious mice were restrained by scruffing and inverted parallel to the floor with the chin at ˜180-degree angle with the neck. Using a 10 μL tip, a pipettor was loaded with 5 μl of vehicle (ddH2O) or fluorosamine (1 mg/animal in 20 μl or 5 mg/animal in 20 μl). The tip of the filled pipettor was placed near the left nostril at a 45-degree angle, and the drug was ejected to form a small 5 μl droplet at tip for the mouse to inhale. Immediately after the mouse inhaled the first droplet the remaining solution was ejected to form another small droplet for the mouse to inhale through the same nostril. The mouse was held in this position for 15 seconds before the procedure was repeated in the right nostril. The mouse was returned to the cage for 2 minutes and the process was repeated so that each mouse received four droplets of 5 μl each, delivering a total of 20 μl of solution. All drugs were administered delivered approximately 1 h before lights off […].

CSPG-ECM = experiment: I.C.V. fluorosamine in obese mice: WFA immunostaining of CSPG-ECM in brain areas
Protocol: For detection of aggrecan, GFP, HABP, parvalbumin, mCherry, versican, tenascin-C, HAPLN1, neurocan, phosphacan, brevican, WFA and WFA-FITC sections were incubated at room temperature for 1 h in blocking buffer (0.3% Triton X-100, 5% normal goat serum, Gibco, ThermoFisher, MA, 0.02% sodium azide) and then overnight at 4° C. in 1% blocking buffer containing either rabbit anti-aggrecan (1:1000, AB1031, Millipore, MA), chicken anti-GFP (1:2000; ab13970, Abcam, Cambridge, UK), Biotinylated HABP (1:100, 385911, Burlington, MA), sheep anti-parvalbumin (1:1000), in house), rabbit anti-dsRed (1:2000, 600-401-379, Rockland, PA), rabbit anti-versican (1:1000, AB1033, Millipore, MA), tenascin-C (1:500, M1-B4, Developmental Studies Hybridoma Bank, Iowa), HAPLN1 (1:500, 9/30/8-A-4, Developmental Studies Hybridoma Bank, Iowa), neurocan (1:300, 1F6-S, Developmental Studies Hybridoma Bank, Iowa), phophacan (1:300, 3F8, Developmental Studies Hybridoma Bank, Iowa), brevican (1:500, 610895, BD Transduction Laboratories), biotinylated WFA (1:2000, L1516; Sigma-Aldrich, MO), WFA-FITC (1:2000, FL-1351-2, Vector Laboratories, CA), rabbit anti PGP9.5 (1:1000, 14730-1-AP, Proteintech, IL), guinea pig anti AgRP (1:500, AS506, Antibodies Australia, Melbourne, AUS). […]
All image quantification was performed in Image J (NIH) software (NIH, MA). […] To quantify area and intensity of the CSPG-ECM within each brain region (ARC, VMH or RSG cortex) images were thresholded and binarized to create a region of interest (ROI) mask of only the CSPG-ECM. For each brain area, CSPG-ECM ROI area (μm^2) and intensity (sum of all pixel intensities within the ROI) was calculated. […]

[3] = I.C.V. fluorosamine in obese AgRP-Cas9 mice given AAV-gScrambled or AAV-gIR; conditions: 100 μg/animal I.C.V. daily for 10 days
Protocol: Metabolic measurements were undertaken in the Melbourne Mouse Metabolic Phenotyping Platform (The University of Melbourne, Australia). Glucose tolerance tests were performed on 6 h fasted conscious mice respectively by injecting D-glucose (2 mg/g of lean body mass and 1 mg/g lean mass for db/db and HFHS+STZ mice) into the peritoneal cavity and measuring glucose in tail blood immediately before and at 15, 30, 45, 60, 90 and 120 min after injection using an Accu-Check glucometer (Roche, Germany). The areas under glucose excursion curves were determined and expressed as mmol/1×min. Fasted (12 h fast) plasma insulin or glucose levels were determined using a Rat/Mouse Insulin ELISA (EZRMI-13K, Merck Millipore, CA) or an Accu-Check glucometer respectively. The HOMA-IR was calculated using the equation [(glucose×insulin)/405]. Adiposity was measured using TD-NMR minispec (Bruker Optics Inc., Billerica, MA).
as §1
Under isoflurane anaesthetic 12-week HFHS fed C57BL/6J or AgRP-Cas9 mice were implanted stereotaxically with guide cannulas into the right lateral ventricle (0.2 mm posterior, 1.0 mm lateral from bregma). Guide cannula was positioned 1.3 mm above the injection site (1 mm ventral to the surface of the skull). AgRP-Cas9 mice were treated with either AAV-gScrambled or AAV-gIR and underwent guide cannula placement 7 days post AAV administration. Mice were administered I.C.V. vehicle (ddH2O), fluorosamine (100 μg/animal/day or 250 μgl/animal/day) in a volume of 2 μl/animal and all compounds were delivered approximately 1 h before lights off […].

[4] = control AAV-gScrambled AgRP-Cas9 mice

## CC(=O)NC1C(OC(C)=O)OC(COC(C)=O)[C@@H](F)C1OC(C)=O (stereo partly drawn) [fluorosamine, per-O-acetylated-4-F-N-acetylglucosamine]
[1]
  energy expenditure: increases energy expenditure
  food intake: decreases food intake
[2]
  ARC pAKT +ve. cells (insulin receptor signalling): robust increase
CSPG-ECM; I.C.V. daily for 10 days
  CSPG-ECM in other brain areas such as the RSG cortex: did not reduce CSPG-ECM
  neurofibrosis (CSPG-ECM, WFA immunostaining) within the ARC: significantly attenuated neurofibrosis within the ARC; also recorded: preferentially attenuates CSPG-ECM in the ARC
CSPG-ECM; I.C.V., highest dose
  CSPG-ECM expression in the habenula: only partially attenuated expression
[3]; AAV-IR AgRP-Cas9 mice (AgRP insulin receptor disrupted)
  positive metabolic outcomes of treatment: mitigated, at least in part
[3]; [4]
  adiposity: reduced adiposity
  body weight: promoted weight loss
  caloric intake: attenuated caloric intake
  energy expenditure: enhanced energy expenditure independently of ambulatory activity
  glycaemic control: improved glycaemic control
